Assay [1] has as its system immunoadhesin-expressing CHO cells. Nature of the assay: 3 L fed-batch bioreactor culture of immunoadhesin-expressing CHO cells: N-glycan (HILIC-UPLC), TSA and ProG titer. It counts as cell-based, Chinese hamster. As to the method:
FIG. 5A and FIG. 5B. […] Copper (II) sulfate was delivered as part of the 5×-concentrated DMEM/F12 feed media at a concentration of 1 mM in the feed media. The Day 14 final concentration of CuSO4 in the culture was 0.25 mM, due to 25% feeding. In the CuSO4, glucosamine, and galactose combination conditions, copper (II) sulfate was delivered as part of the 5×-concentrated DMEM/F12 feed media at a concentration of 1 mM in the feed media. The Day 14 final concentration of CuSO4 in the culture was 0.22 mM, due to 22% feeding. Glucosamine was delivered as two 10 mM boli, each on Day 6 and Day 8. Galactose was delivered as part of the 5×-concentrated DMEM/F12 feed media from Day 6-14 at a concentration of 20 g/L in the feed. The Day 14 final concentration of galactose was 2.4 g/L, due to 12% feeding from Day 6-14. In the CuSO4 and hypoxanthine condition, copper (II) sulfate and hypoxanthine were delivered as part of the 5×-concentrated DMEM/F12 feed media at a concentration of 1 mM and 3 mM, respectively, in the feed media. The Day 14 final concentrations of CuSO4 and hypoxanthine in the culture were 0.23 mM and 0.7 mM, due to 23% feeding.
Bioreactor culture conditions: Fed batch cultures were performed in 5 L glass Applikon vessels using Finesse TruBio DV controllers (Finesse Solutions, San Jose, Calif.) with an initial working volume between 2-2.5 L. Bioreactors were seeded at constant seed density of 4×10^5 cells/ml. Concentrated feed medium was delivered on days 3, 5, and every day or every other day following through harvest. Temperature was maintained at 35° C. or 36° C. and pH was controlled at 7.1+/−0.2 by the addition of either 1 M sodium carbonate or carbon dioxide. Dissolved oxygen was maintained at 30%-40% by air and oxygen sparge using a drilled hole sparger. Agitation was maintained between 200-400 RPM throughout the culture to limit total gas flow, while an overlay was maintained between 0.005 and 0.04 vvm.
(§1) Offline analysis: Samples were taken on most days and analyzed with a variety of equipment. Cell density and viability were measured using the standard technique of trypan blue exclusion using a Cedex (Roche Innovatis AG, Germany). Cell viability and growth rate of the various cultures were measured during the culture time course at specific days post-inoculation.
(§2) Copper (II) sulfate, hypoxanthine, guanine, glucosamine, and galactose were delivered to two different immunoadhesin-expressing CHO cell cultures either as part of the feed media or as boli from distinct stock solutions. The typical culture process is a 14-day process that consists of a growth phase from Day 0 to Day 6 at 37° C. and a protein production phase from Day 6 to Day 14 at 30° C.

For assay [2] the test system is unchanged. The assay can be described thus: Fed-batch shake flask culture of immunoadhesin-expressing CHO cells: N-glycan (HILIC-UPLC) and ProG titer. It counts as cell-based, Chinese hamster. Conditions: for Titer: Day 14 harvest; for % afucose / % charged / % galactosylation: fed-batch shake flask; for % afucose levels: addition to fed-batch shake flask cultures. The method, then: FIG. 3A and FIG. 3B. Effect of hypoxanthine and guanine on the growth (FIG. 3A) and viability (FIG. 3B) of fed-batch shake flask cultures of immunoadhesin-expressing CHO cells. Copper (II) sulfate was delivered as part of the 5×-concentrated DMEM/F12 feed media at a concentration of 1 mM in the feed media. The Day 14 final concentration of CuSO4 in the culture was 0.2 mM due to 20% feeding. Hypoxanthine was delivered as a 1 mM bolus from a 200 mM stock solution on Day 6 after the temperature shift. Guanine was delivered as a 0.2 mM bolus from a 100 mM stock solution on Day 6 after the temperature shift.
FIG. 4A and FIG. 4B. Effect of copper (II) sulfate on the growth (FIG. 4A) and viability (FIG. 4B) of fed-batch shake flask cultures of immunoadhesin-expressing CHO cells. Copper (II) sulfate was delivered as part of the 5×-concentrated DMEM/F12 feed media at a concentration of 1 mM in the feed media. The Day 14 final concentration of CuSO4 in the culture was 0.2 mM, due to 20% feeding. Alternatively, copper (II) sulfate was delivered as 0.2 mM and 0.5 mM boli on Day 6 from a stock solution.
Cell culture methods: Cells were thawed and maintained as in a previous report (Kshirsagar, et al. 2012 Biotechnol Bioeng, Huang, et al. Biotechnology Progress 26(5):1400-1410 (2010)). Basal medium for thaw and passing was the same as in previous reports (Kshirsagar/Huang). Briefly, cells were thawed and maintained in 3 L shake flasks (Corning Life Sciences, Corning, N.Y.) with 1 L working volumes and were passaged every 2-3 days. For maintenance cultures the incubator was controlled at 37° C. and 5% CO2. […]
as §2

In the next assay the test system is FcγRIIIa. Nature of the assay: % FcγRIIIa binding of purified product relative to Enbrel innovator material. The following applies: for % FcγRIIIa: Day 14 product, ProA and HIC purified, relative to Enbrel innovator material, hypoxanthine 1 mM or guanine 0.2 mM bolus D6; for levels of FcγRIIIa binding: addition to fed-batch shake flask cultures.
In the next assay the test system is CHO-043 cells. Nature of the assay: CHO-043 fed-batch shake flask culture: N-glycan (HILIC-UPLC), sialylation and ProG titer of the expressed immunoadhesin. It is filed as cell-based, Chinese hamster. As to the method: FIG. 1A and FIG. 1B. Effect of glucosamine and galactose on the growth (FIG. 1A) and viability (FIG. 1B) of fed-batch shake flask cultures. Glucosamine was delivered as two 10 mM boli, each on Day 2 and Day 4 in both the glucosamine alone condition and the glucosamine/galactose combination condition. […] The Day 14 final concentration of galactose was 6 g/L, due to 30% feeding. Cell line: The cell line used in this study produced a growth factor receptor immunoadhesin polypeptide. The cell line was constructed using DG44 adapted to grow in serum-free medium (Prentice, 2007). The cell line DUXB11 was also used in this study. Cell culture methods: Cells were thawed and maintained as in a previous report ([…] al. 2012 Biotechnol Bioeng, Huang, et al. Biotechnology Progress 26(5):1400-1410 (2010)). Basal medium for thaw and passing was the same as in previous reports ([…]). Briefly, cells were thawed and maintained in 3 L shake flasks (Corning Life Sciences, Corning, N.Y.) with 1 L working volumes and were passaged every 2-3 days. For maintenance cultures the incubator was controlled at 37° C. and 5% CO2. Offline analysis: Samples were taken on most days and analyzed with a variety of equipment. Cell density and viability were measured using the standard technique of trypan blue exclusion using a Cedex (Roche Innovatis AG, Germany). Cell viability and growth rate of the various cultures were measured during the culture time course at specific days post-inoculation. […] The typical culture process is a 14-day process that consists of a growth phase from Day 0 to Day 6 at 37° C. and a protein production phase from Day 6 to Day 14 at 30° C. [table]

In a further assay the test system is CHO-602. The assay can be described thus: CHO-602 fed-batch shake flask culture: N-glycan (HILIC-UPLC), sialylation and ProG titer. It counts as cell-based, Chinese hamster. The following applies: for % NGNA / % afucose / TSA (mol/chain): Day 12, GlcN 10 mM bolus D6, combination: plus galactose 20 g/L in feed (4 g/L final). As to the method: FIG. 2A and FIG. 2B. Effect of glucosamine and galactose on the growth (FIG. 2A) and viability (FIG. 2B) of fed-batch shake flask cultures of immunoadhesin-expressing CHO cells. Glucosamine was delivered as 10 mM boli on Day 6 for the 10 mM conditions and again on Day 8 for the 20 mM condition. In the glucosamine and galactose combination conditions, galactose was delivered as part of the 5×-concentrated DMEM/F12 feed media at a concentration of 20 g/L in the feed. The Day 14 final concentration of galactose was 4 g/L, due to 20% feeding.
FIG. 6A and FIG. 6B. Effect of copper (II) sulfate and Hypoxanthine-Thymidine (HT) supplement on the growth (FIG. 6A) and viability (FIG. 6B) of immunoadhesin-expressing CHO cells in fed-batch shake flasks. […] Copper (II) sulfate, hypoxanthine, and thymidine were delivered as part of the 5×-concentrated DMEM/F12 feed media at a concentration of 1 mM, 1 mM, and 0.16 mM respectively in the feed media for the HT Low condition and 1 mM, 3 mM, and 0.5 mM respectively in the feed media for the HT High condition. The Day 14 final concentration of CuSO4, hypoxanthine, and thymidine in the culture was 0.30 mM, 0.30 mM, and 0.05 mM respectively for the HT Low condition and 0.30 mM, 1 mM, and 0.16 mM respectively for the HT High condition due to 30% feeding.
Cell culture methods: Cells were thawed and maintained as in a previous report (Kshirsagar, et al. 2012 Biotechnol Bioeng, Huang, et al. Biotechnology Progress 26(5):1400-1410 (2010)). Basal medium for thaw and passing was the same as in previous reports (Kshirsagar/Huang). Briefly, cells were thawed and maintained in 3 L shake flasks (Corning Life Sciences, Corning, N.Y.) with 1 L working volumes and were passaged every 2-3 days. For maintenance cultures the incubator was controlled at 37° C. and 5% CO2.
as §1, §2

Where [3] appears, read: Day 14, CuSO4 1 mM in feed (0.25 mM final; 0.22 mM in combination), GlcN two 10 mM boli D6, D8, galactose 2.4 g/L final.
The mark [4] stands for this setting: feed supp. w/1 mM CuSO4 (0.2 mM final Day 14), Day 12.
Setting [5] is: ExptA, ProG, hypoxanthine 1 mM or guanine 0.2 mM bolus D6.
The mark [6] stands for this setting: ExptA, Day 14, hypoxanthine 1 mM or guanine 0.2 mM bolus D6.
Setting [7] is: ExptB, ProG, hypoxanthine 1 mM or guanine 0.2 mM bolus D6.
Setting [8] is: ExptB, Day 14, hypoxanthine 1 mM or guanine 0.2 mM bolus D6.
The mark [9] stands for this setting: Day 12, GlcN two 10 mM boli D2, D4, combination: plus galactose 20 g/L in feed (6 g/L final).
Where [10] appears, read: Day 12, GlcN two 10 mM boli D2, D4, combination: plus galactose 20 g/L in feed (6 g/L final), listed as glucosamine.

For `O=S(=O)([O-])[O-].[Cu+2]` [CuSO4, copper (II) sulfate], in assay [1] (setting [3]), the “% NGNA” value worked out at 0.7%. Also, the “% afucose” value in assay [1] (setting [3]) amounted to 7.1%; in assay [2] (0.2 mM CuSO4 D6 bolus, Day 12), 8.2%; in assay [2] (0.5 mM CuSO4 D6 bolus, Day 12) it was 8.2%; in assay [2] (setting [4]), 8.4%. The “% charged” value in assay [1] (setting [3]) was determined as 41.9%; in assay [2] (0.2 mM CuSO4 D6 bolus, Day 12) it was 42.1%; in assay [2] (0.5 mM CuSO4 D6 bolus, Day 12) it was 42.4%; in assay [2] (setting [4]) it was 43.7%. Also, the “% galact.” value in assay [1] (setting [3]) stood at 65.4%. Also, the “% α-gal” value in assay [1] (setting [3]) amounted to 0.4%. In addition, the “TSA (mol/chain)” value in assay [1] (setting [3]) came to 13.5 mol/chain. Besides, the “Titer” value in assay [1] (Day 14 harvest, CuSO4 1 mM in feed, combination with GlcN two 10 mM boli and galactose 2.4 g/L final) is recorded as 2.0 g/L; in assay [2] (0.2 mM CuSO4 D6 bolus) it was 1.9 g/L; in assay [2] (0.5 mM CuSO4 D6 bolus), 1.9 g/L; in assay [2] (feed supp. w/1 mM CuSO4 (0.2 mM final Day 14)), 1.8 g/L. The “% galactosylation” value in assay [2] (0.2 mM CuSO4 D6 bolus, Day 12) was 70.3%; in assay [2] (0.5 mM CuSO4 D6 bolus, Day 12), 68.5%; in assay [2] (setting [4]), 62.7%. Also, in assay [2] (copper (II) sulfate alone, shake flask), the “% afucose, % galactosylation, and % charged levels of N-linked glycosylation” value was “toward values associated with a comparator polypeptide”.

On to `O=c1[nH]cnc2nc[nH]c12` [Hypoxanthine, hypoxanthine], for which the “% FcγRIIIa” value in the assay on FcγRIIIa (ExptA) stood at 85%; in the assay with FcγRIIIa (ExptB) it was 122%. Further, the “levels of FcγRIIIa binding” value in the assay on FcγRIIIa is listed as “within the range of a comparator polypeptide”. Besides, the “Titer” value in assay [2] (setting [5]) is listed as 1.7 g/L; in assay [2] (setting [7]), 1.6 g/L. The results for the “% afucose” value in assay [2] (setting [6]) and in assay [2] (setting [8]) were 9.5% and 8.3%, respectively. The “% afucose levels” value in assay [2] is recorded as “no change”.

Consider `N[C@H]1C(O)O[C@H](CO)[C@@H](O)[C@@H]1O` (some centres unmarked) [GlcN, glucosamine], for which the figures for the “% NGNA” value in the assay with CHO-043 cells (setting [9]), with CHO-602 and in the assay on CHO-602 (listed as glucosamine) were 3.8%, 1.3% and “little effect”, respectively. Also, the “% afucose” value was 1.7% in the assay on CHO-043 cells (setting [9]), 8.9% in the assay on CHO-602 and “little effect” in the assay on CHO-602 (listed as glucosamine). Further, the “% α-gal” value is recorded as 2.4% with CHO-043 cells (setting [9]) and “reduced” with CHO-043 cells (setting [10]). For the same compound, the “TSA (mol/chain)” value with CHO-043 cells (setting [9]) is recorded as 6.6 mol/chain; in the assay with CHO-043 cells (setting [10]), 6 mol/chain; in the assay on CHO-602, 11.1 mol/chain; in the assay with CHO-602 (listed as glucosamine), “reduce sialylation”. Further, the “Titer” value in the assay on CHO-043 cells (Day 12 harvest, ProG, GlcN two 10 mM boli D2, D4, combination: plus galactose (6 g/L final)) is recorded as 1.8 g/L; with CHO-602 (Day 14 harvest, ProG, GlcN 10 mM bolus D6, combination: plus galactose (4 g/L final)), 1.4 g/L.

In the case of `Nc1nc2nc[nH]c2c(=O)[nH]1` [Guanine, guanine], the results for the “% FcγRIIIa” value in the assay on FcγRIIIa (ExptA) and with FcγRIIIa (ExptB) were 92% and 121%, respectively. Besides, the “levels of FcγRIIIa binding” value with FcγRIIIa is on record as “within the range of a comparator polypeptide”. The entries for the “Titer” value in assay [2] (setting [5]) and in assay [2] (setting [7]) were 1.5 g/L and 1.6 g/L, respectively. Besides, the “% afucose” value amounted to 10.5% in assay [2] (setting [6]) and 10.2% in assay [2] (setting [8]). The “% afucose levels” value in assay [2] is on record as “no change”.
